In the oligonucleotide strings, read from the 5' end, every base follows the letter of its sugar. An asterisk marks phosphorothioate; unmarked linkages are phosphodiester. Other units and linkages are bracketed, terminal groups are in braces. A string of capitals states the bases alone. d = 2'-deoxy (DNA); r = 2'-OH (RNA)
System: PCSK9 mRNA
Assay: PCSK9 siRNA screening in HepG2 cells (lipofectamine 2000 transfection, PCSK9 mRNA by Quantigene, normalized to GAP-DH)
Format: cell-based, human
Settings: for Mean percent remaining mRNA transcript at siRNA concentration/in cell type 30 nM/HepG2: 30 nM siRNA; for Mean percent remaining mRNA transcript at siRNA concentration/in cell type 100 nM/HepG2: 100 nM siRNA; for Mean percent remaining mRNA transcript at siRNA concentration/in cell type 3 nM/HepG2: 3 nM siRNA
Procedure, shortened: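 PCSK9 silencing was assessed in HepG2 cells by lipofectamine 2000 siRNA transfection in 96-well plates. Twenty-four hours later, lysates were analyzed with the Quantigene Explore Kit, with PCSK9 signal normalized to GAP-DH. Eight datapoints were collected per siRNA, and remaining transcript was expressed as a percentage of cells treated with an unrelated control siRNA duplex.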

Substance	Mean percent remaining mRNA transcript at siRNA concentration/in cell type 30 nM/HepG2 [%]	Mean percent remaining mRNA transcript at siRNA concentration/in cell type 100 nM/HepG2 [%]	Mean percent remaining mRNA transcript at siRNA concentration/in cell type 3 nM/HepG2 [%]	IC50 [nM]
AD-9585: PCSK9 siRNA (sense rCrGrGrCrArArCrUrUrCrCrGrGrGrArCrGrArUdT*dT; antisense rArUrCrGrUrCrCrCrGrGrArArGrUrUrGrCrCrGdT*dT)	83			
AD-9586: PCSK9 siRNA (sense rGrArCrArUrCrArUrUrGrGrUrGrCrCrUrCrCrAdT*dT; antisense rUrGrGrArGrGrCrArCrCrArArUrGrArUrGrUrCdT*dT)	104	81		
AD-9587: PCSK9 siRNA (sense rArCrArUrUrUrArUrCrUrUrUrUrGrGrGrUrCrUdT*dT; antisense rArGrArCrCrCrArArArArGrArUrArArArUrGrUdT*dT)	63		49	
AD-9588: PCSK9 siRNA (sense rGrGrUrCrArCrCrGrCrUrGrCrCrGrGrCrArArCdT*dT; antisense rGrUrUrGrCrCrGrGrCrArGrCrGrGrUrGrArCrCdT*dT)	66			
AD-9589: PCSK9 siRNA (sense rCrArCrCrGrCrUrGrCrCrGrGrCrArArCrUrUrCdT*dT; antisense rGrArArGrUrUrGrCrCrGrGrCrArGrCrGrGrUrGdT*dT)	85	67		
AD-9590: PCSK9 siRNA (sense rArCrCrArArCrUrUrUrGrGrCrCrGrCrUrGrUrGdT*dT; antisense rCrArCrArGrCrGrGrCrCrArArArGrUrUrGrGrUdT*dT)	122			
AD-9591: PCSK9 siRNA (sense rArCrUrGrUrCrCrCrUrCrCrUrUrGrArGrCrArCdT*dT; antisense rGrUrGrCrUrCrArArGrGrArGrGrGrArCrArGrUdT*dT)	95	75		
AD-9592: PCSK9 siRNA (sense rCrCrUrArGrArCrArCrCrArGrCrArUrArCrArGdT*dT; antisense rCrUrGrUrArUrGrCrUrGrGrUrGrUrCrUrArGrGdT*dT)	55	46		
AD-9593: PCSK9 siRNA (sense rCrArGrGrGrUrCrArUrGrGrUrCrArCrCrGrArCdT*dT; antisense rGrUrCrGrGrUrGrArCrCrArUrGrArCrCrCrUrGdT*dT)	55			
AD-9594: PCSK9 siRNA (sense rGrCrUrGrCrCrGrGrCrArArCrUrUrCrCrGrGrGdT*dT; antisense rCrCrCrGrGrArArGrUrUrGrCrCrGrGrCrArGrCdT*dT)	95	80		
AD-9595: PCSK9 siRNA (sense rCrUrGrArGrGrArCrCrArGrCrGrGrGrUrArCrUdT*dT; antisense rArGrUrArCrCrCrGrCrUrGrGrUrCrCrUrCrArGdT*dT)	31		32	
AD-9596: PCSK9 siRNA (sense rGrArArGrArUrGrArGrUrGrGrCrGrArCrCrUrGdT*dT; antisense rCrArGrGrUrCrGrCrCrArCrUrCrArUrCrUrUrCdT*dT)	37			
AD-9597: PCSK9 siRNA (sense rArGrCrCrArArGrCrCrUrCrUrUrCrUrUrArCrUdT*dT; antisense rArGrUrArArGrArArGrArGrGrCrUrUrGrGrCrUdT*dT)	23		21	0.04
AD-9598: PCSK9 siRNA (sense rCrCrUrGrGrUrGrGrArGrGrUrGrUrArUrCrUrCdT*dT; antisense rGrArGrArUrArCrArCrCrUrCrCrArCrCrArGrGdT*dT)	83	69		
AD-9599: PCSK9 siRNA (sense rUrUrCrUrGrGrArUrGrGrCrArUrCrUrArGrCrCdT*dT; antisense rGrGrCrUrArGrArUrGrCrCrArUrCrCrArGrArAdT*dT)	139			
AD-9600: PCSK9 siRNA (sense rGrUrCrGrUrGrCrUrGrGrUrCrArCrCrGrCrUrGdT*dT; antisense rCrArGrCrGrGrUrGrArCrCrArGrCrArCrGrArCdT*dT)	112			
AD-9601: PCSK9 siRNA (sense rArGrGrGrUrCrArUrGrGrUrCrArCrCrGrArCrUdT*dT; antisense rArGrUrCrGrGrUrGrArCrCrArUrGrArCrCrCrUdT*dT)	111			
AD-9602: PCSK9 siRNA (sense rCrArGrCrGrGrCrCrGrGrGrArUrGrCrCrGrGrCdT*dT; antisense rGrCrCrGrGrCrArUrCrCrCrGrGrCrCrGrCrUrGdT*dT)	126			
AD-9603: PCSK9 siRNA (sense rUrUrUrCrUrGrGrArUrGrGrCrArUrCrUrArGrCdT*dT; antisense rGrCrUrArGrArUrGrCrCrArUrCrCrArGrArArAdT*dT)	123			
AD-9604: PCSK9 siRNA (sense rCrUrCrArGrCrCrArArCrCrCrGrCrUrCrCrArCdT*dT; antisense rGrUrGrGrArGrCrGrGrGrUrUrGrGrCrUrGrArGdT*dT)	49	35		
AD-9605: PCSK9 siRNA (sense rUrGrGrUrGrArArGrArUrGrArGrUrGrGrCrGrAdT*dT; antisense rUrCrGrCrCrArCrUrCrArUrCrUrUrCrArCrCrAdT*dT)	27		31	0.27
AD-9606: PCSK9 siRNA (sense rUrCrGrUrGrCrUrGrGrUrCrArCrCrGrCrUrGrCdT*dT; antisense rGrCrArGrCrGrGrUrGrArCrCrArGrCrArCrGrAdT*dT)	107			
AD-9607: PCSK9 siRNA (sense rGrGrArGrCrUrGrGrUrGrCrUrArGrCrCrUrUrGdT*dT; antisense rCrArArGrGrCrUrArGrCrArCrCrArGrCrUrCrCdT*dT)	32		28	0.2
AD-9608: PCSK9 siRNA (sense rUrGrCrUrArGrCrCrUrUrGrCrGrUrUrCrCrGrAdT*dT; antisense rUrCrGrGrArArCrGrCrArArGrGrCrUrArGrCrAdT*dT)	37			
AD-9609: PCSK9 siRNA (sense rCrArCrGrGrUrArCrCrGrGrGrCrGrGrArUrGrAdT*dT; antisense rUrCrArUrCrCrGrCrCrCrGrGrUrArCrCrGrUrGdT*dT)	71	66		
